In US10854312B2, “Selective peptide antagonists” (BIONIZ, LLC, priority 2013, dated 2020):
Entries after “also recorded” stand apart in the source; their conditions may differ. No end group written: not given here.

Columns and labels:
human IL-21 = experiment: PT-18 h21Rα survival assay (apoptosis by Annexin V staining), IL-21; format: cell-based; conditions: hIL-21Rα-transfected PT-18 cells, 1 nM human IL-21, 5 μM BNZ132-1, PE-Annexin V flow cytometry
Experimental: FIG. 6A-FIG. 6E presents inhibitory spectrum of BNZ132-1 over γc- and non-γc-cytokines. […] Neutralizing antibodies against each cytokine (R & D systems, 5 μg ml^−1) were included as controls. After 20 h, the cells were pulsed with WST-1 (Clontech) and OD450 of each well was measured after 6 h. A 19-mer scrambled peptide was used as a negative control at 5 μM. The experiments were conducted in triplicate (applies to all experiments in FIG. 6A-FIG. 6E). The result represents one of at least three independent experiments (applies to all experiments in FIG. 6A-FIG. 6E). […] In PT-18 proliferation assay, PT-18β or PT-18h21Rα cells were withdrawn of mouse IL-3 for 12 h before the experiment. Cells were then incubated with 1 nM of mouse IL-4, mouse IL-9, or mouse IL-21 in the presence or absence of the indicated doses (μM) of BNZ132-1. Neutralizing antibodies to each cytokine (5 μg ml^−1, except for anti-mouse IL-21 polyclonal antibody which was used at 15 μg ml−1) and a scrambled control peptide (5 μM) were included as negative controls. WST-1 assay was conducted as described above. […] In PT-18 h21Rα survival assay, PT-18h21Rα cells are described in the text. […] Both parental and hIL-21Rα positive PT-18 cells were washed and incubated without IL-3 for 12 h before the assay. […] The Y-axis represents the cpm (count per minute) values measured by a β-counter. […]

human IL-2 = experiment: NK92 cell proliferation assay (WST-1), IL-2; format: cell-based; conditions: 24 h
Experimental: Human peripheral blood mononuclear cells were purified by the Ficoll-paque gradient centrifugation (GE-Healthcare) and stimulated by PHA (5 μg ml^−1, Sigma) for 48 h, then expanded with IL-2 (0.5 nM, Peprotech) for 48h, and then depleted of non-T cells by the Pan-T cell negative enrichment Ab cocktails (Miltenyi). The purified T cells were then fasted of IL-2 overnight prior to the proliferation assay by the tetrazolium dye method. Four hundred thousand cells (in 200 μl culture) were incubated with the cytokines and BNZ132-1 at the indicated concentrations for 24 h, and 20 μl WST1 reagent (Clontech) was added to each well. After 12 h incubation, OD450 was measured. The assay was performed in triplicate. […] NK 92 cells were cultured in human IL-2. Cells were washed to withdraw IL-2 for overnight and two hundred thousand cells (in 200 μl volume) were incubated with the indicated concentrations of the cytokine and BNZ132-1 for 24 h before 20 μl WST-1 reagent (Clontech) was added to each well to measure proliferative response. Absorbance at 450 nm was read at 6 h after the addition of the WST-1 dye. The assay was performed in triplicate. The assay was performed in triplicate and the figure represents a typical result out of 5 different HAM-TSP patients.
FIG. 8B, and FIG. 8C show the results of NK92 cell proliferation assay. NK92 cells responded to IL-2 and IL-15. […]

IKEFLQRFIHIVQSIINTS [BNZ132-1]
inhibition of IL-21-mediated protection from apoptotic death after IL-3 withdrawal (human IL-21): did not counteract the effect of IL-21; also recorded: not inhibited; also recorded: no inhibition of IL-21
inhibition of IL-2-induced proliferation of NK92 cells (human IL-2): dose-dependent manner; also recorded: dose-dependent inhibition
